The values below come from patent publication US12723039B2, “Small molecule inhibitors of SLC15A4 with anti-inflammatory activity” (THE SCRIPPS RESEARCH INSTITUTE, priority 2020, dated 2026).

One assay relates to CpG (TLR9). Briefly: In vivo model of inflammation: CpG co-injection, serum cytokines. The note with it: mice co-injected with compound and CpG (TLR9), single dose, serum after 6 hr.
Assay [1] has as its target T1, human SLC15A4 dileucine mutant (L14A, L15A, L318A, V319A) (Homo sapiens, UniProt Q8N697, L14A/L15A/L318A/V319A).
T1 construct: expressed in transfected cells
As to the kind of experiment: SLC15A4 transport NFκB luciferase reporter assay in A549 cells. The format is cell-based. The note with it: for block of MDP transport in a dose-dependent fashion: FIG. 9; for suppression of MDP or Tri-DAP induced NFκB luciferase: A549 cells with membrane-trafficked SLC15A4 mutant. From the text: Development of SLC15A4-Transport Luciferase Reporter Assay. […] The precise substrate scope of endolysosomal SLC15A4 is not established. However, several studies have implicated SLC15A4 to be a transporter of the bacterial-derived peptidoglycans, such as MDP and Tri-DAP, which are ligands of the immune sensors NOD1 and NOD2^27-29, 48. Recently, it has been shown that disruption of the dileucine motifs (DE)-XXXL-(L/I) or DXXLL of SLC15A3^49 and SLC15A4^50 can result in successful targeting to the plasma membrane. Considering that NODs signal through the NFκB pathway, we sought to develop an NFκB reporter assay as a strategy to measure SLC15A4 transport in cells.
Briefly, both wildtype (WT) human SLC15A4 and a dileucine mutant (L14A, LISA, L318A, V319A) were cloned in frame with the mCherry using a (GGGGS)3 linker in the pLPC lentiviral backbone. Lentiviral vectors were packaged in psPAX2 and pMD2.G packing plasmids and used to generate stable cell lines expressing either SLC15A4 WT or membrane-trafficked SLC15A4 mutant A549 cells (FIG. 5A). Stable reporter cells were subsequently generated from these SLC15A4 cell lines using the Promega Dual-Luciferase Reporter system (pGLA4.32 [luc2P/NFκB-RE/Hygro]) containing five copies of an NF-κB response element. We confirmed the production of luciferase upon exposure to MDP or Tri-DAP NOD ligands ([…]), which is suppressed when exposed to either triptolide (an NF[…]B inhibitor, FIG. 5C) ML130 (NOD1 inhibitor, not shown) or GSK717 (NOD2 inhibitor, not shown).

The subject of assay [2] is endogenous NOD signaling in human macrophages. As to the kind of experiment: Endogenous NOD signaling in human macrophages. The format is cell-based. The note with it: FIG. 11.
For assay [3], the system named is endogenous NOD signaling in mouse macrophages. As to the kind of experiment: Endogenous NOD signaling in mouse macrophages. The note with it: FIG. 11. The format is cell-based.
Another assay addresses T2, SLC25A20 (Homo sapiens, UniProt O43772).
T2 construct: endogenous in cells
T2 sequence (O43772 1-301): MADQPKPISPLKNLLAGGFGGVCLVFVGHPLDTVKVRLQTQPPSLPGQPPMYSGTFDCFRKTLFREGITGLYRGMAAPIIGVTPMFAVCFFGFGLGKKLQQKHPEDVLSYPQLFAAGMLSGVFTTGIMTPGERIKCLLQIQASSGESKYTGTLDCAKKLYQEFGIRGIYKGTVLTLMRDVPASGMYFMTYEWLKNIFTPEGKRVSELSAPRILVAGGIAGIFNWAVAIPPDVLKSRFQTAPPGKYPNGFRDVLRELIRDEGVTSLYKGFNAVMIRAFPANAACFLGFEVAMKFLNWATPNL
The note with it: previously published work (ref. 46); cited from earlier work.

T1 sequence (Q8N697 whole entry L14A/L15A/L318A/V319A): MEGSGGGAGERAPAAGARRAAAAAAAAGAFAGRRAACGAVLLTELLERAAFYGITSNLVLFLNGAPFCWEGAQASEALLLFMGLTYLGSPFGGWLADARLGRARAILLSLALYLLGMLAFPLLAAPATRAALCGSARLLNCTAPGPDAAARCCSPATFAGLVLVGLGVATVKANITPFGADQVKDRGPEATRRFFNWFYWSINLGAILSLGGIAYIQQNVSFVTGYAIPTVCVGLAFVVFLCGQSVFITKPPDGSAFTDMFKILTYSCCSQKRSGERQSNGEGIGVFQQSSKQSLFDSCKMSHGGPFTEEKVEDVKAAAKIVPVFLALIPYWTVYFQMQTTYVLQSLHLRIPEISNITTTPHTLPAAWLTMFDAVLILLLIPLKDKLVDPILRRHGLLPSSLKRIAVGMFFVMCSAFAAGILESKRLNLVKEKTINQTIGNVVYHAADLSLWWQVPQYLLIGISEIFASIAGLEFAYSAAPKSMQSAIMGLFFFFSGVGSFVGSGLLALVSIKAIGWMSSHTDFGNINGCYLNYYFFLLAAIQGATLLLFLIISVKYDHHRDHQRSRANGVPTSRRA

On to `CCCC(=O)n1c(NCc2c[nH]c3ccc(Br)cc23)nc2ccccc21` [AJ2-3, 1-(2-(((5-bromo-1H-indol-3-yl)methyl)amino)-1H-benzo[d]imidazol-1-yl)butan-1-one], for which the “in vivo efficacy: serum cytokines after CpG” value (shortened to “in vivo efficacy”) in the assay with CpG (TLR9) is recorded as “active”.
As to `Brc1ccc2[nH]cc(CNc3nc4ccccc4[nH]3)c2c1` [AJ2-3A, N-((5-bromo-1H-indol-3-yl)methyl)-1H-benzo[d]imidazol-2-amine], the “block of MDP transport in a dose-dependent fashion” value (“block of MDP transport” below) in assay [1] is “active”.
Still for that read-out and setting: to `CCCC(=O)N(Cc1ccc2[nH]ccc2c1)C1Cc2ccccc2NC1=O` (stereo not drawn) [AJ2-18, N-((1H-indol-5-yl)methyl)-N-(2-oxo-1,2,3,4-tetrahydroquinolin-3-yl)butyramide] belongs “inactive controls”.
As for `CCCC(=O)N(Cc1ccc2[nH]ccc2c1)C1Cc2ccccc2C1` [AJ2-22, N-((1H-indol-5-yl)methyl)-N-(2,3-dihydro-1H-inden-2-yl)butyramide], the “in vivo efficacy” value in the assay on CpG (TLR9) was “inactive control”. Moreover, in assay [1], the “block of MDP transport” value is “inactive controls”.
On to `CCn1c2ccccc2c2cc(CNc3nc4ccccc4n3C)ccc21` [AJ2-30, N-((9-ethyl-9H-carbazol-3-yl)methyl)-1-methyl-1H-benzo[d]imidazol-2-amine], for which the “in vivo efficacy” value in the assay with CpG (TLR9) is recorded as “active”. Moreover, the “block of endogenous NOD signaling in human macrophages” value in assay [2] was “active”. The “block of MDP transport” value in assay [1] was “active”. Besides, in assay [3], the “block of endogenous NOD signaling in mouse macrophages” value is “active”.
In the case of `C#CCCC1(CCC(=O)Nc2ccc3oc(=O)ccc3c2)N=N1` [FFF 3], the “engagement of SLC25A20” value at SLC25A20 is given as “highly engages”.
On to `Cc1ccc(S(=O)(=O)n2c(N)nc3ccccc32)cc1` [ML130, reference compound], for which, in assay [1], the “suppression of MDP or Tri-DAP induced NFκB luciferase” value is listed as “suppressed”.
In the case of `CC(C)[C@]12O[C@H]1[C@@H]1O[C@]13[C@]1(O[C@H]1C[C@H]1C4=C(CC[C@@]13C)C(=O)OC4)[C@@H]2O` [triptolide, reference compound], the “suppression of MDP or Tri-DAP induced NFκB luciferase” value in assay [1] is listed as “suppressed”.
